Counter-ions that a name gives are not always drawn. Like-named read-outs stand apart in the source and are kept apart here.
Experiments:
[1] = target: ROCK2 (Homo sapiens, UniProt O75116); assay: biochemical
[2] = target: ROCK1 (Homo sapiens, UniProt Q13464); assay: ROCK kinase inhibition assay, ROCK1 enzyme; format: biochemical;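 further: kinase reaction with 0.5 µM final ATP, 75 min at room temperature, remaining ATP read by luminescence, percent of DMSO-only control minus background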
[3] = target: JAK2 (Homo sapiens, UniProt O60674); assay: JAK kinase assay, JAK2 enzyme; format: biochemical;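 further: JAK2 kinase reaction run 75 min at room temperature, leftover ATP read by Kinase-Glo luminescence, 11-point dilution series in 2.5% DMSO, percent of inhibitor-free DMSO control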
Sequence of JAK2 (O60674 whole entry, species assumed): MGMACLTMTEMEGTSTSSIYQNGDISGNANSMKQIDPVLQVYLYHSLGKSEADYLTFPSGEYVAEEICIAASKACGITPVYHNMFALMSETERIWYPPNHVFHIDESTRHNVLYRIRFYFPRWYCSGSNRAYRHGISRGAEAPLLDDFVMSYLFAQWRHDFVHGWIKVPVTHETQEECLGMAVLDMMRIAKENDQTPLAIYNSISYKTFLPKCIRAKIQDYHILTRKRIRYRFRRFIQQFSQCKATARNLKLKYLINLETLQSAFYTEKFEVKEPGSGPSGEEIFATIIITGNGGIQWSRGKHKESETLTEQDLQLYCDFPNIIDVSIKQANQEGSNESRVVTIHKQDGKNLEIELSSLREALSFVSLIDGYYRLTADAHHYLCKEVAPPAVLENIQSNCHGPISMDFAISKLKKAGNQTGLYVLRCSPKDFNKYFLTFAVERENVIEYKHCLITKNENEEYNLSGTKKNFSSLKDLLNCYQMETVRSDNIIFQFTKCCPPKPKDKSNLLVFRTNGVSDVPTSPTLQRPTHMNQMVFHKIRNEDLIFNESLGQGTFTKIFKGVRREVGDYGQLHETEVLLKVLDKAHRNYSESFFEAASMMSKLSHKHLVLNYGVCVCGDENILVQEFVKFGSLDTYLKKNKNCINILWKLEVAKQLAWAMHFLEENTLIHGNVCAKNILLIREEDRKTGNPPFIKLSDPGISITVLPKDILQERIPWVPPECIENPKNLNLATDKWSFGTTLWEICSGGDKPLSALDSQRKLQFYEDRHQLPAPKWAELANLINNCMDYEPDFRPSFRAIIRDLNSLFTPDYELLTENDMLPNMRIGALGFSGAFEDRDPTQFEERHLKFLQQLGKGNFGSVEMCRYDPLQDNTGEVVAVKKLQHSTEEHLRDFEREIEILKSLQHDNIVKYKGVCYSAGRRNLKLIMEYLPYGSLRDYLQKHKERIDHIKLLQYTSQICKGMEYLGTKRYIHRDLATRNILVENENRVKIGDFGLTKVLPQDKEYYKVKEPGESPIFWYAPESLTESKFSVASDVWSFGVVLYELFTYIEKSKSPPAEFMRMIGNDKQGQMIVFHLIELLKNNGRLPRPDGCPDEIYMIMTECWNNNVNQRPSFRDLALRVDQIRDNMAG

[4] = target: T1, JAK3 (Homo sapiens, UniProt P52333); assay: JAK kinase assay, JAK3 enzyme; format: biochemical
T1 sequence (P52333 1-1124): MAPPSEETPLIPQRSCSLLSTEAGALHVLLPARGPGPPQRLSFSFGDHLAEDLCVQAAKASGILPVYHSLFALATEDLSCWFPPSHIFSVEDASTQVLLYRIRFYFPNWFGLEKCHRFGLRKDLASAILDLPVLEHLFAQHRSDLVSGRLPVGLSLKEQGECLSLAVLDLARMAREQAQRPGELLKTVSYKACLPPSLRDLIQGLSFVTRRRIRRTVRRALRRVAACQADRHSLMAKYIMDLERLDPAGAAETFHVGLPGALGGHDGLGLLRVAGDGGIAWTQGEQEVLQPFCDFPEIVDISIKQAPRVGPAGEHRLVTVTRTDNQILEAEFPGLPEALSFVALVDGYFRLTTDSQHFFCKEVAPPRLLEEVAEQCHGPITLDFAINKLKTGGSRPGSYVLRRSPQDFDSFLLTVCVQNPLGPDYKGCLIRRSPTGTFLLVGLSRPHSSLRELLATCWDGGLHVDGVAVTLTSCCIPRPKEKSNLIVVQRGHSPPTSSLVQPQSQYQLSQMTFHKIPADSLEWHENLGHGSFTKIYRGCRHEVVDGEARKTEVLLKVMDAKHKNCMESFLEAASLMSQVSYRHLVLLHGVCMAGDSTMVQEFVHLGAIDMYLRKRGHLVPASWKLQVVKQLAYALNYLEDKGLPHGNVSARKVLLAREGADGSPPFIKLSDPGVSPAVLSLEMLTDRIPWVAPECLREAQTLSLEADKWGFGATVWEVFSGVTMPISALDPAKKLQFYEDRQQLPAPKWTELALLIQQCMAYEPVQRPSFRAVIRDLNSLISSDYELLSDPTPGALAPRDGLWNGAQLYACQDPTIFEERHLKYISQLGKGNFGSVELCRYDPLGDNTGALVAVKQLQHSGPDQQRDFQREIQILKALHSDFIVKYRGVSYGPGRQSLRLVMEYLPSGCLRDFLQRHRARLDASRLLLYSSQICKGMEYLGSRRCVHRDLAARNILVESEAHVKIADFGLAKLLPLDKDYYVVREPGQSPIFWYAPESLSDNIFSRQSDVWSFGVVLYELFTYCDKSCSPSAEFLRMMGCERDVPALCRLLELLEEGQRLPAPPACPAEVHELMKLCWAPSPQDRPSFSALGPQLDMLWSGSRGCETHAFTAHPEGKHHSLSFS

[5] = test system: Porcine Trabecular Meshwork cells (PTM); assay: PTM-HTM assay, actin fiber length in PTM cells; format: cell-based; settings: Sus scrofa, read-out: PTM
Protocol: Porcine Trabecular Meshwork cells (PTM) were isolated from freshly obtained enucleated porcine eyes. Immortalized Human Trabecular Meshwork cells (TM-1) were obtained through a kind gift from Donna Peters in the Department of Ophthalmology and Visual Sciences at the University of Wisconsin. Cells were plated onto fibronectin coated glass-bottom 96-well plates and allowed to attach overnight. Media was removed and replaced with test compound in media with 1% fetal bovine serum and incubated for various times. After incubation, cells were formaldehyde fixed, triton solubilized, and stained. PTM cells were stained with Alexa Fluor®488 phalloidin (F-actin) and Hoechst 33342 (nuclei). TM-1 cells were stained with anti-paxillin followed by Alexa Fluor®488 goat-anti-mouse IgG (focal adhesions) and Hoechst 33342 (nuclei). All staining reagents were obtained through Invitrogen. Images were collected on an INCell 2200 imager with a 20× objective. The actin fiber length and total area of focal adhesions were analyzed using custom algorithms developed in the INCell Developer Toolbox, v1.9.3. Data collected were converted to percent of control (untreated cells). Curves were fit to data in GraphPad Prizm using sigmoidal dose-response and constraining top and bottom to 100% and 0%, respectively.

[6] = target: Rho Kinase; assay: ROCK kinase inhibition assay (Rho Kinase Activity, isoform not given); format: biochemical; settings: Table 15, mostly given as ranges
Protocol: All compounds were initially prepared as 10 mM stocks in anhydrous dimethylsulfoxide (DMSO). A 20 μl aliquot of the 10 mM solutions was transferred to individual wells in column 1 of a 96-well polypropylene microtiter plate (Corning #3363) and diluted with DMSO to give a final compound concentration of 4 mM. Test compounds were then serially diluted 1:5 in DMSO for an 11-point concentration response and further diluted in the assay buffer bringing all compound concentrations to a final range of 100 μM to […] in 2.5% DMSO. The assay was performed in white 96-well, flat-bottom, half-area, non-binding assay plate (Corning #3642) in assay buffer consisting of 20 mM HEPES (pH 7.5), 10 mM MgCl2*6H2O, 100 μM sodium orthovanadate, 0.05% CHAPS and 0.1% bovine serum albumin. A 10 μL aliquot of compound from each well of the intermediate dilution plate and 20 μL of a 2× substrate/enzyme solution containing acceptor substrate (800 nM RSK2 peptide […] (SEQ ID NO: 1)), ROCK2 enzyme (10 nM), or ROCK1 enzyme, and 1,4-Dithiothreitol (DTT, 2 uM) were added to all wells. The reaction was initiated by the addition of 10 μL of 4× stock solution ATP (2 μM). Reactions were thoroughly mixed manually, covered and allowed to incubate at room temperature for 75 min. Protein kinase activity was quantitated using Promega's KINASE-GLO™ luminescent Kinase Assay Kit according to the manufacturer's directions. ATP concentrations remaining in Test wells following the termination of the enzymatic reaction were compared against control wells containing equivalent amounts of DMSO containing no inhibitor (CTRL). […] Percent of Control (POC) values were determined for each concentration of compound tested according to the equation: POC=((Test well value−BKG)/(CTRL−BKG))*100
IC50 values were converted to K; […]

[7] = target: T2, IKKb (Homo sapiens, UniProt O14920); assay: IKKb kinase activity; format: biochemical; settings: Table 17
T2 sequence (O14920 1-756): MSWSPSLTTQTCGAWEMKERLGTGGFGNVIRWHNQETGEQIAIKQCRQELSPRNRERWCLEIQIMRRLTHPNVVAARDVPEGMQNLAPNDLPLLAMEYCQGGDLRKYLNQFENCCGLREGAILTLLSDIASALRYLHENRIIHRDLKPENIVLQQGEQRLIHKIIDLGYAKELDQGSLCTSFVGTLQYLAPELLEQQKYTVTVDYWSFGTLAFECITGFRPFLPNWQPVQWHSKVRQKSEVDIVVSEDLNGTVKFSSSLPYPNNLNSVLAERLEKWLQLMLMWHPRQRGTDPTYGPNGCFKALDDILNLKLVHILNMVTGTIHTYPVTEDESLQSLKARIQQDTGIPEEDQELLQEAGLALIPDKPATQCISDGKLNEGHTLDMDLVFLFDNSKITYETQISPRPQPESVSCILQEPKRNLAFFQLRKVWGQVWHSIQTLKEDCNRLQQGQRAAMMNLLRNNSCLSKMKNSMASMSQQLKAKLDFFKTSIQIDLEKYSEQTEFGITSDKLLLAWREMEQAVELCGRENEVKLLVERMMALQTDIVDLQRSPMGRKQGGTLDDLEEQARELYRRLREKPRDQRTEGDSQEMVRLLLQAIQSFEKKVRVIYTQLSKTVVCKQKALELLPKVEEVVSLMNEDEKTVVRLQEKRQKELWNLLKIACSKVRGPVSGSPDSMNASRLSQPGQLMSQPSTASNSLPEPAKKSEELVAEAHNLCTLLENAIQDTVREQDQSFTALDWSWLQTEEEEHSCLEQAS

Sequence of ROCK2 (O75116 whole entry, species assumed): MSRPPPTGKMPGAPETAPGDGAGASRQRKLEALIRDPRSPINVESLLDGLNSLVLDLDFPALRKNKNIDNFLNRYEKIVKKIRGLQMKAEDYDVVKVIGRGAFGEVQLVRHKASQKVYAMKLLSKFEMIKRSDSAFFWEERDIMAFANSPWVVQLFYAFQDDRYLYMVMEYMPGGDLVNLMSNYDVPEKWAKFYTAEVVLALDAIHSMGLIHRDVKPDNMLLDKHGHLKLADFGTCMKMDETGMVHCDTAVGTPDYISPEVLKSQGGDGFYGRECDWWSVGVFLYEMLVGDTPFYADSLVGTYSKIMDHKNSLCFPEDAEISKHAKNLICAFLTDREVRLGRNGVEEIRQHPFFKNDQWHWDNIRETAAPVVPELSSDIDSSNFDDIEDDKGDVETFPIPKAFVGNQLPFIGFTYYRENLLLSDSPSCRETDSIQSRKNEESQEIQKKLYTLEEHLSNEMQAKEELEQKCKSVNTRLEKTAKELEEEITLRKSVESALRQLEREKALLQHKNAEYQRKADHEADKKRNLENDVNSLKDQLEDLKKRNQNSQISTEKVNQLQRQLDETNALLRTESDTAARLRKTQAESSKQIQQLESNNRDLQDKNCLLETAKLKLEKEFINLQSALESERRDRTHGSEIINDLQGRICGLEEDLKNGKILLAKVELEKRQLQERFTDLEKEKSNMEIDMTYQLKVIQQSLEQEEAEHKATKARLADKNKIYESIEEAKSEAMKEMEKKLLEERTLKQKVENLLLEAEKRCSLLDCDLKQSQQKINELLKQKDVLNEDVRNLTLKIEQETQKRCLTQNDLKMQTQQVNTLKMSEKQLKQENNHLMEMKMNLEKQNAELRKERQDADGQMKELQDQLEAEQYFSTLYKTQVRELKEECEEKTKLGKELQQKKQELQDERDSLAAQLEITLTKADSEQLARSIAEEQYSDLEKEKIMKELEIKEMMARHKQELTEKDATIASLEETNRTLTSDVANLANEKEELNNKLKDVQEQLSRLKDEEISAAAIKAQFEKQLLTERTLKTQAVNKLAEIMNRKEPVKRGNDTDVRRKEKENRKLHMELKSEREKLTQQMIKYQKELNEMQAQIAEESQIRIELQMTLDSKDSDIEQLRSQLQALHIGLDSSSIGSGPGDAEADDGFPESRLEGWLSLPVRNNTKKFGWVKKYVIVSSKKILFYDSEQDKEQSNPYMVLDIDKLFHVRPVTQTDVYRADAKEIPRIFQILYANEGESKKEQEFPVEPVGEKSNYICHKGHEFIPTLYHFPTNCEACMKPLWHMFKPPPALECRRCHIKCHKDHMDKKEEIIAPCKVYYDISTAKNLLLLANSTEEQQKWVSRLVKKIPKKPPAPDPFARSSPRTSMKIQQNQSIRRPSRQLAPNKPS
Sequence of ROCK1 (Q13464 whole entry, species assumed): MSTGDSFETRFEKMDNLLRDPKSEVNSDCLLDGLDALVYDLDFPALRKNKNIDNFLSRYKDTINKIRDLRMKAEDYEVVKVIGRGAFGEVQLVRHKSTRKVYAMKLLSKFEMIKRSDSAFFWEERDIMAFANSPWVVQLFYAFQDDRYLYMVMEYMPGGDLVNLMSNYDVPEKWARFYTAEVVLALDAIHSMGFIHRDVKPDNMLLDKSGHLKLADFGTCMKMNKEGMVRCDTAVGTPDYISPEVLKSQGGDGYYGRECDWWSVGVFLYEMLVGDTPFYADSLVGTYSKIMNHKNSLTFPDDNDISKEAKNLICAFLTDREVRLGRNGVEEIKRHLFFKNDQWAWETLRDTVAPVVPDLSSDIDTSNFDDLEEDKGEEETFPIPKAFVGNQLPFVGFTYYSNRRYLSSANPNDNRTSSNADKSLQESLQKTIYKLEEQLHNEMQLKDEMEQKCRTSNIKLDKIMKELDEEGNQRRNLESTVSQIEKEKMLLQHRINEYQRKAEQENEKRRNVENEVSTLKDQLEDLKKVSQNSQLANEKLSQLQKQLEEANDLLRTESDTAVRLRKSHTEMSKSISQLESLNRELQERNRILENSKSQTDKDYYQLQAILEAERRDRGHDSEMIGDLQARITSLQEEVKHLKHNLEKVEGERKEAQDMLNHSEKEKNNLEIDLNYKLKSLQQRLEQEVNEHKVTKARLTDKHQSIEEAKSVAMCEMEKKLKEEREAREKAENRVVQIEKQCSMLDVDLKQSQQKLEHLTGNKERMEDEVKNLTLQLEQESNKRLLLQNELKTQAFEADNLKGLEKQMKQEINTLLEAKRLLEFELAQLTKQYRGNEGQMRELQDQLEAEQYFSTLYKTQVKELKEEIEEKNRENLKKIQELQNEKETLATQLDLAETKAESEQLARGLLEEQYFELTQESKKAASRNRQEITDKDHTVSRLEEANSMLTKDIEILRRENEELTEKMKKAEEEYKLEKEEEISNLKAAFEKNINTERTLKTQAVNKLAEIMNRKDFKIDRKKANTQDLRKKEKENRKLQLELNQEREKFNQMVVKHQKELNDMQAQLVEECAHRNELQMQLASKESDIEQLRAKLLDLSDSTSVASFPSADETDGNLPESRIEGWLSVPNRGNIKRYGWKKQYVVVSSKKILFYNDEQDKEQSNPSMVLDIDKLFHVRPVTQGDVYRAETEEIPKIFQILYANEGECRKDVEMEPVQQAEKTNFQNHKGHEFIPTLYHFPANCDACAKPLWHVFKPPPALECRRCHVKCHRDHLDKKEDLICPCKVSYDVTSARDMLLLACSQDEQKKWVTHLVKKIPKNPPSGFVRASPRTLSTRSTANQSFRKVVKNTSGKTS

Compound	Ki ([1]; ROCK2, Table 17) [nM]	Ki ([2]; ROCK1, Table 17) [nM]	Ki ([4]; Table 16, read-out: JAK3) [nM]	Ki ([4]; Table 17, read-out: JAK3) [nM]	further results
O=C(Nc1ccc2cnccc2c1)[C@@H]1C[C@H]1c1ccc(I)cc1 [Example E277]	–	–	–	–	Ki ([1]; ROCK2, Table 16): 175 nM; Ki ([2]; ROCK1, Table 16): 270 nM; Ki ([3]; Table 16, read-out: JAK2): 650 nM
O=C(Nc1ccc2cnccc2c1)[C@@H]1C[C@H]1c1ccc(S(=O)(=O)Nc2ccccn2)cc1 (racemic)	–	–	–	12	–
O=C(Nc1ccc2cnccc2c1)[C@@H]1C[C@H]1c1ccc(S(=O)(=O)Nc2ccccn2)cc1 (single isomer, unassigned) [Example E266]	–	–	12	–	Ki ([2]; ROCK1, Table 16): 9 nM
O=C(Nc1ccc2cnccc2c1)[C@@H]1C[C@H]1c1ccc(S(=O)(=O)Nc2ccccn2)cc1 [(1R,2R)-N-(isoquinolin-6-yl)-2-(4-(N-(pyridin-2-yl)sulfamoyl)phenyl) cyclopropane-1-carboxamide]	–	–	–	4.3	IC50 [5]: 61 nM
O=C(Nc1ccc2cnccc2c1)[C@@H]1C[C@H]1c1ccc(S(=O)(=O)Nc2ccccn2)cc1 (single isomer, unassigned) [Example E267]	–	–	5.8	–	–
O=C(NCc1ccccn1)c1ccc(C2CC(=O)N(c3ccc4cnccc4c3)C2)cc1 (stereo not shown) [Example E233]	–	–	–	–	Ki [6]: 4350 to 8400 nM; Ki ([3]; Table 15, in brackets in the activity cell, read-out: JAK2 activity): 5800 to 13500 nM; Ki ([4]; Table 15, in brackets in the activity cell, read-out: JAK3 activity): 3400 to 3800 nM
O=C(Nc1ccc2cncc(Cl)c2c1)C1CC1c1ccc(S(=O)(=O)Nc2ccccn2)cc1 (racemic) [rel-N-(4-chloroisoquinolin-6-yl)-2-(4-(N-(pyridin-2-yl)sulfamoyl)phenyl)cyclopropane-1-carboxamide]	–	–	–	–	Ki [7]: 9 nM; IC50 ([5]; Table 17, porcine trabecular meshwork cells): 227 nM
O=C(Nc1ccc2cnccc2c1)[C@@H]1C[C@H]1c1ccc(S(=O)(=O)NCc2cccnc2)cc1 (relative stereo) [(rel)-(1R,2R)-N-(isoquinolin-6-yl)-2-(4-(N-(pyridin-3-ylmethyl)sulfamoyl)phenyl) cyclopropane-1-carboxamide]	9	25	–	–	–
O=C(Nc1ccc2cnccc2c1)[C@@H]1C[C@H]1c1ccc(S(=O)(=O)NC[C@@H]2CCCNC2)cc1 [Example E273]	–	–	1140	–	Ki ([1]; ROCK2, Table 16): 4 nM; Ki ([2]; ROCK1, Table 16): 4 nM
O=C(Nc1ccc2cnccc2c1)[C@@H]1C[C@H]1c1ccc(S(=O)(=O)NCC2CCNCC2)cc1 (relative stereo) [drawing 663, (rel)-(1R,2R)-N-(isoquinolin-6-yl)-2-(4-(N-(piperidin-4-ylmethyl)sulfamoyl)phenyl) cyclopropane-1-carboxamide dihydrochloride]	8	9	–	–	–
O=C(Nc1ccc2cncc(Cl)c2c1)[C@@H]1C[C@H]1c1ccc(S(=O)(=O)NC[C@@H]2CCCNC2)cc1 (relative stereo) [(rel)-(1R,2R)-N-(4-chloroisoquinolin-6-yl)-2-(4-(N-(((R)-piperidin-3-yl)methyl)sulfamoyl)phenyl)cyclopropane-1-carboxamide dihydrochloride]	–	–	–	160	–
O=C(Nc1ccc2cnccc2c1)[C@@H]1C[C@H]1c1ccc(S(=O)(=O)NC[C@@H]2CCCNC2)cc1 (relative stereo) [(rel)-(1R,2R)-N-(isoquinolin-6-yl)-2-(4-(N-(((R)-piperidin-3-yl)methyl)sulfamoyl)phenyl) cyclopropane-1-carboxamide dihydrochloride]	4	4	–	1140	–

Now from value to compound, other results behind:

Ki ([1]; ROCK2, Table 17) [nM]	Ki ([2]; ROCK1, Table 17) [nM]	Ki ([4]; Table 16, read-out: JAK3) [nM]	Ki ([4]; Table 17, read-out: JAK3) [nM]	Compound	further results
175	270	–	–	O=C(Nc1ccc2cnccc2c1)[C@@H]1C[C@H]1c1ccc(I)cc1 (relative stereo) [drawing 670, (rel)-(1R,2R)-2-(4-iodophenyl)-N-(isoquinolin-6-yl)cyclopropane-1-carboxamide]	Ki ([3]; Table 17, read-out: JAK2): 650 nM
–	–	160	–	O=C(Nc1ccc2cncc(Cl)c2c1)[C@@H]1C[C@H]1c1ccc(S(=O)(=O)NC[C@@H]2CCCNC2)cc1 [Example E274]	–
–	–	7500	–	O=C(Nc1ccc2cnccc2c1)[C@@H]1C[C@H]1c1ccc(F)c(S(=O)(=O)Nc2ccccc2)c1 [Example E281]	Ki ([1]; ROCK2, Table 16): 240 nM; Ki ([2]; ROCK1, Table 16): 150 nM; Ki ([3]; Table 16, read-out: JAK2): 3000 nM
–	–	–	160	O=C(Nc1ccc2cncc(Cl)c2c1)[C@@H]1C[C@H]1c1ccc(S(=O)(=O)NC[C@@H]2CCCNC2)cc1 [drawing 666]	–
240	150	–	7500	O=C(Nc1ccc2cnccc2c1)[C@@H]1C[C@H]1c1ccc(F)c(S(=O)(=O)Nc2ccccc2)c1 [drawing 674]	Ki ([3]; Table 17, read-out: JAK2): 3000 nM
12.5	15	–	1060	O=C(Nc1ccc2cnccc2c1)[C@@H]1C[C@H]1c1ccc(F)c(S(=O)(=O)Nc2ccccn2)c1 [drawing 673]	Ki ([3]; Table 17, read-out: JAK2): 1400 nM
–	–	1060	–	O=C(Nc1ccc2cnccc2c1)[C@@H]1C[C@H]1c1ccc(F)c(S(=O)(=O)Nc2ccccn2)c1 [Example E280]	Ki ([1]; ROCK2, Table 16): 12.5 nM; Ki ([2]; ROCK1, Table 16): 15 nM; Ki ([3]; Table 16, read-out: JAK2): 1400 nM
